# From patent US20130123185A1, “METHODS OF TREATING AND DIAGNOSING ACUTE CHEST SYNDROME” (EMORY UNIVERSITY, priority 2010, published 2013)
# Like-named read-outs stand apart in the source and are kept apart here.
# B1: recombinant human hemopexin: recombinant human hemopexin, a protein that binds free heme for transport to the liver (protein, UniProt P02790 24-462, looked up)
# Hemopexin: TPLPPTSAHGNVAEGETKPDPDVTERCSDGWSFDATTLDDNGTMLFFKGEFVWKSHKWDRELISERWKNFPSPVDAAFRQGHNSVFLIKGDKVWVYPPEKKEKGYPKLLQDEFPGIPSPLDAAVECHRGECQAEGVLFFQGDREWFWDLATGTMKERSWPAVGNCSSALRWLGRYYCFQGNQFLRFDPVRGEVPPRYPRDVRDYFMPCPGRGHGHRNGTGHGNSTHHGPEYMRCSPHLVLSALTSDNHGATYAFSGTHYWRLDTSRDGWHSWPIAHQWPQGPSAVDAAFSWEEKLYLVQGTQVYVFLTKGGYTLVSGYPKRLEKEVGTPHGIILDSVDAAFICPGSSRLHIMAGRRLWWLDLKSGAQATWTELPWPHEKVDGALCMEKSLGPNSCSANGPGLYLIHGPNLYCYSDVEKLNAAKALPQPQNVTSLLGCTH
# How the values were obtained:
# [1] = system: C57BL/6J, B6.B10ScN-Tlr4lps-del/JthJ and C3H/HeJ mice; type: in vivo
# Method: The role of TLR-4 in response to an acute increase in free heme was investigated. Wild type C57BL/6J mice and TLR-4 mutant mice B6.B10ScN-Tlr4^lps-del and C3H/HeJ (Poltorak et al. Defective LPS signaling in C3H/HeJ and C57BL/10ScCr mice: mutations in Tlr4 gene. Science. 1998; 282(5396):2085-2088.; Qureshi et al. Endotoxin-tolerant mice have mutations in Toll-like receptor 4 (Tlr4). The J Expt. Med. 1999; 189(4):615-625) were injected intravenously with 210 μmoles/kg hemin, a normally lethal dose. This injection increased free heme concentrations by a magnitude of 50-fold in both wild type and TLR-4 mutant mice (FIG. 6a).
# TPH per se, therefore, the involvement of a receptor mediated mechanism was suspected. Several heme receptors have been characterized, including TLR433, which is uniquely expressed by multiple cells in the circulation and therefore accessible to PFPH. Studies were performed in wild-type C57BL/6J mice, and mutant strains, B6.B10ScN-Tlr4lps-del/JthJ and C3H/HeJ, harboring a deletion and a point mutation respectively, in the murine TLR4 gene. Significant elevation of PFPH in these mice required a large dose of heme (210 μmoles/kg) (FIG. 12a), and as expected this amount of heme interfered, transiently with SpO2 measurements characterized by an immediate and dramatic decline. […] This interpretation was supported by a return of SpO2 values to normal in C3H/HeJ but not in the wild-type C57BL/6J mice, indeed, SpO2 deteriorated over time in the latter reminiscent of the decline in SS mice (FIG. 12b). […] These unique pulmonary responses were consistent with survival (FIG. 12d) and lung histology (FIG. 13).
# [2] = system: SS mice; experiment: TAK-242 pre-treatment before heme in SS mice; type: in vivo, mouse
# Method: (a, b) The concentration of total and protein-free plasma heme in SS mice following, injections of TAK-242 or intralipid in the absence of exogenous heme. (c, d) Percentage oxygen saturation and breath rate monitored in real-time in SS mice at different stages of the experiment as indicated. Data shown are for a total of nine SS mice (intralipid; n=4, TAK-242; n=5). (e) Survival of SS mice pre-treated with TAK-242 (3 or 5 mg/kg) for 1 h prior to intravenous administration of heme (n=7-13). Control mice were treated with intralipid (n=17). (f) Representative lung H&E staining of SS mice treated with intralipid or TAK-242 one hour prior to administration of heme (35 μmoles/kg). Cumulative lung injury score (n=3). *p<0.05, **p<0.01 and ***p<0.001.
# TAK-242 (resatorvid) is a small molecule that binds to Cys747 of the intracellular domain of TLR4 and inhibits downstream signaling. It inhibits the production of lipopolysaccharide (LPS)-induced inflammatory mediators, and it improves survival in LPS-induced sepsis. […] One hour prior to heme administration, a cohort of SS mice were intravenously administered 5 mg/kg of TAK-242, or intralipid. […] Heme had no impact on SpO2 in the majority of TAK-242 treated SS mice (5/6), however it caused an initially subtle yet sustained decrease that deteriorated over time in the intralipid treated mice (FIG. 14c). […] TAK-242 protected 83% of the SS mice from heme induced lethality, compared to 20% in the group given intralipid. These survival data were similar to those obtained in subsequent experiments focused on heme induced lethality (TAK-242; 5/7 (71%) protection, intralipid; 3/12 […] protection). The combined data is shown in FIG. 14e, and is supported by histological analysis (FIG. 14f).
# [3] = system: SS mice
# [4] = system: non-sickle cell disease mice; details: hemin 70 μmoles/kg, Vinchi et al.; cited from earlier work
# [5] = system: NF-κB; experiment: NF-κB activation in pulmonary microvascular endothelial cells; type: cell-based; details: PMVECs, hemin 5 or 10 μM
# Source text: Additionally, the role of NF-κB in the inflammatory response to free heme that occurs in ACS was investigated. Endothelial TLR4, and not neutrophil TLR4, mediates the early stage of the acute sequestration of neutrophils into the lungs in response to systemic LPS (Andonegui et al. Endothelium-derived Toll-like receptor-4 is the key molecule in LPS-induced neutrophil sequestration into lungs. J Clin Invest. 2003; 111(7):1011-1020; Andonegui et al. Mice that exclusively express TLR4 on endothelial cells can efficiently clear a lethal systemic Gram-negative bacterial infection. J Clin Invest. 2009; 119(7): 1921-1930). Thus, pulmonary microvascular endothelial cells (PMVECs) may play a role in the inflammatory response to free heme. […] These include nuclear translocation of p65 NF-κB in PMVECs as determined by immunofluorescence staining and western blot of nuclear extract (FIGS. 7b and 7c, respectively), luciferase reporter gene activity driven by a promoter harboring NF-κB cis elements in PMVECs (FIG. 7d), and TNF-α production (FIG. 7e).
# [6] = system: SS mice; experiment: Acute prophylaxis with recombinant human hemopexin before heme in SS mice; type: in vivo, mouse; details: 1 mg intravenously immediately before heme 35 μmoles/kg
# Method: Mice were injected with rhHx (n=6), vehicle (n=5) or human IgG (n=3) immediately before administration of heme (35 μmoles/kg). *p<0.05, **p<0.01 and ***p<0.001.
# The hemopexin-treated mice were all protected while the control mice succumbed to heme (FIG. 11). Thus, acute prophylaxis using hemopexin may be an attractive therapeutic strategy to block the deleterious effects of PFPH during severe episodes of acute hemolysis in SCD.
molecule,measurement,setting,value
"C=CC1=C(C)c2cc3[nH]c(cc4[nH]c(cc5nc(cc1n2)C(C)=C5C=C)c(C)c4CCC(=O)[O-])c(CCC(=O)[O-])c3C.[Na+].[Na+] [Na-PPIX, sodium protoporphyrin IX]",survival,"[1]; injected at the LD100 of heme, C57BL/6J mice",no impact on survival
"CCOC(=O)C1=CCCC[C@H]1S(=O)(=O)Nc1ccc(F)cc1Cl [TAK-242, resatorvid]",development of heme induced ALI,"[2]; SCD mice, pre-treatment 1 h before heme",prevents
same,scavenging of heme (total and protein-free plasma heme),"[2]; SS mice, absence of exogenous heme",did not alter
same,protection from heme induced lethality,"[2]; TAK-242 5 mg/kg 1 h before heme, SS mice, first cohort",83%
same,SS mice in which heme had no impact on SpO2,[2]; TAK-242 5 mg/kg intravenously 1 h before heme,5/6
same,breath rate after heme,"[2]; TAK-242 5 mg/kg intravenously 1 h before heme, SS mice",remained essentially the same
same,protection from heme induced lethality,"[2]; subsequent experiments focused on lethality, SS mice",71%
Fe(III)PPIX [hemin],serum ALT,"[3]; SS mice treated with heme, at the median time of death",normal
same,plasma hemopexin level after heme injection,"[3]; SS mice, heme 35 μmoles/kg, 5-30 min",virtually undetectable levels
same,survival,"[3]; heme 35 μmoles/kg, SS mice with the highest baseline hemopexin level",50%
same,survival,"[3]; heme 35 μmoles/kg, SS mice with the lowest baseline hemopexin (<0.1 mg/ml)",none
same,survival,"[3]; heme 70 μmoles/kg, AS and AA mice",no impact on survival
same,total plasma heme (TPH) and protein-free plasma heme (PFPH),"[3]; heme 17.5-70 μmoles/kg intravenously, SS mice",raised TPH and PFPH in a dose-dependent manner
same,lethality,"[3]; heme 17.5-70 μmoles/kg, SS mice",caused lethality in SS mice in a dose-dependent manner
same,oxygen saturation (SpO2),"[3]; hemin 70 μmoles/kg intravenous, SS mice",sharp drop
same,increase of plasma concentration of heme,"[3]; hemin 70 μmoles/kg intravenously, SS and control mice",20 fold
same,change in SpO2 or breath rate,"[3]; hemin 70 μmoles/kg, AS mice",no significant change
same,change in hematocrit,"[3]; hemin 70 μmoles/kg, SS or control mice",did not significantly change
same,lethality,"[3]; hemin 70 μmoles/kg, Townes and Berkeley SCD mice",caused sudden death
same,mortality,"[3]; hemin 70 μmoles/kg, adult SS mice aged 13-27 weeks",100%
same,survival,"[3]; hemin 70 μmoles/kg, young SS mice 5-7 weeks old",80%
same,increase of lung permeability,[4],2 fold
same,mortality,"[1]; hemin 210 μmoles/kg, both types of TLR-4 mutant mice",0%
same,mortality rate,"[1]; hemin 210 μmoles/kg, wild type C57BL/6J mice, after 90 minutes",100%
same,"NF-κB activation (p65 nuclear translocation, luciferase reporter, TNF-α production)",[5],dose-dependently activates
Iron mesoporphyrin [Fe(III)MPP-IX],survival,"[1]; mouse, in vivo",no impact on survival
B1,protection from heme induced lethality,[6],all protected
same,protection from heme induced lethality,[6]; listed as rhHx,protects
